Experiment [1] deals with T1, NAD-dependent protein deacylase sirtuin-5, mitochondrial (Homo sapiens, UniProt Q9NXA8). The experiment can be described thus: Inhibition of human Sirt5 desuccinylation activity using SKEYFS-succinylLys-QK as substrate at 100 uM after 60 mins by glutamate dehydrpgenase-coupled assay.
Target sequence in this assay (Q9NXA8 37-310 limits assumed): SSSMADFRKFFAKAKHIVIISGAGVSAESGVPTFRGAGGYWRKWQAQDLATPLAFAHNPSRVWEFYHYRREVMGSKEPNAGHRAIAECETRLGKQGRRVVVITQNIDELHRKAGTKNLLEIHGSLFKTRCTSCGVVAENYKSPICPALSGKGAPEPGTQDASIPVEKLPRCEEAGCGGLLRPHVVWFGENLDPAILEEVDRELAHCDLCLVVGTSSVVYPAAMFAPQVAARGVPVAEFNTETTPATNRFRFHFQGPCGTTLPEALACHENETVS
Experiment [2] addresses T1, NAD-dependent protein deacylase sirtuin-5, mitochondrial. The experiment can be described thus: Inhibition of human Sirt5 deacetylation activity using FKRGVL-acetylLys-EYGVKV as substrate at 100 uM after 60 mins by glutamate dehydrogenase-coupled assay.
Target sequence in this assay (Q9NXA8 37-310 limits assumed): as above
The target is the same in experiment [3]. The experiment can be described thus: Inhibition of human Sirt5 desuccinylation activity using SKEYFS-succinylLys-QK as substrate assessed as activity remaining at 100 µM measured for 20 mins by MS analysis.
Target sequence in this assay (Q9NXA8 37-310 limits assumed): as above
Experiment [4] shares this target. The experiment can be described thus: Inhibition of human Sirt5 desuccinylation activity using SKEYFS-succinylLys-QK as substrate measured for 15 mins by MS analysis.
Target sequence in this assay (Q9NXA8 whole entry): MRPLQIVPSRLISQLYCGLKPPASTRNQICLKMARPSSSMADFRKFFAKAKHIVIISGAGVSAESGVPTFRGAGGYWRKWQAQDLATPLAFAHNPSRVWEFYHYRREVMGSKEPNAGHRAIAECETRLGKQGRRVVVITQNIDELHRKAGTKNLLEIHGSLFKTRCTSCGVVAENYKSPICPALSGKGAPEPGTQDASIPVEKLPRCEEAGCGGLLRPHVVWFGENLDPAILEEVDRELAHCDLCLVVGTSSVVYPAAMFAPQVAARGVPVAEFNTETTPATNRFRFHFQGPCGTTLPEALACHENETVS
Experiment [5] has the same target. The experiment can be described thus: Inhibition of human Sirt5 deacetylation activity using FKRGVL-acetylLys-EYGVKV as substrate assessed as activity remaining at 100 µM measured for 20 mins by MS analysis.
Target sequence in this assay (Q9NXA8 37-310 limits assumed): as the sequence (Q9NXA8 37-310 limits assumed) above
Experiment [6] shares this target. The experiment can be described thus: Inhibition of human Sirt5 deacetylation activity using FKRGVL-acetylLys-EYGVKV as substrate measured for 15 mins by MS analysis.
Target sequence in this assay (Q9NXA8 whole entry): as the sequence (Q9NXA8 whole entry) above
Experiment [7] shares this target. The experiment can be described thus: Selectivity ratio of IC50 for human Sirt5 deacetylation activity to IC50 for human Sirt5 desuccinylation activity.
Target sequence in this assay (Q9NXA8 37-310 limits assumed): as the sequence (Q9NXA8 37-310 limits assumed) above
Experiment [8] has the same target. The experiment can be described thus: Inhibition of human Sirt5 deacetylation activity using SKEYFS-acetylLys-QK as substrate measured for 15 mins by MS analysis.
Target sequence in this assay (Q9NXA8 whole entry): as the sequence (Q9NXA8 whole entry) above

Activity calls are given as the source filed them. No cut-off for these calls is given here.

In general, inhibition refers to the percentage by which the read-out fell short of the control. Take `O=C1Oc2ccc3cc(Br)ccc3c2CC1c1ccccc1` (stereo not given): the inhibition entry in experiment [1] and in experiment [2] was “inactive” each time.
The IC50 is the concentration needed to halve the response being measured. A higher IC50 goes with weaker potency in that assay. Take `O=C1Nc2ccc(I)cc2C1=Cc1cc(Br)c(O)c(Br)c1` [GW305074X]: the results for the Activity in experiment [3] and in experiment [5] were 15% and 30%, respectively. Moreover, the IC50 worked out at 19.5 µM in experiment [4], 97.8 µM in experiment [6] and 200 µM in experiment [8]. The Ratio IC50 in experiment [7] turned out to be 4.
Compound `CC(C(=O)Nc1cccc(/N=C/c2c(O)ccc3ccccc23)c1)c1ccccc1` (stereo not given) registered an inhibition in experiment [1] of 20%. In addition, in experiment [2], the inhibition entry was “inactive”.
For `O=C(Nc1ccccc1-c1cn2c(CN3CCNCC3)csc2n1)c1cnc2ccccc2n1` the same measures were “inactive” and “inactive”.
On the same counts, the results for `NC(=O)C1CCCc2c1[nH]c1ccc(Cl)cc21` (stereo not given) are “inactive” and “inactive”.
In the case of `Cc1ccc(C(=O)Nc2ccc(S(=O)(=O)O)c3cc(S(=O)(=O)O)cc(S(=O)(=O)O)c23)cc1NC(=O)c1cccc(NC(=O)Nc2cccc(C(=O)Nc3cc(C(=O)Nc4ccc(S(=O)(=O)O)c5cc(S(=O)(=O)O)cc(S(=O)(=O)O)c45)ccc3C)c2)c1`, the inhibition in experiment [1] turned out to be 20%. Also, in experiment [2], the inhibition entry is “Active”.
On to `CC(NC(=O)c1ccccc1/N=C/c1c(O)ccc2ccccc12)c1ccccc1` (stereo not given), for which the inhibition entry in experiment [1] and in experiment [2] was “inactive” throughout.
On to `N#C/C(=C\c1ccc(-c2cc(Cl)ccc2Cl)o1)C(=O)Nc1cccc2ncccc12`, for which the inhibition entry in experiment [1] and in experiment [2] was “inactive” in each case.

For the origin of these results see ChEMBL document CHEMBL2311504, “Inhibition of the human deacylase Sirtuin 5 by the indole GW5074” (Bioorg Med Chem Lett, 2013).
